Data on 26 molecules can be found in US9187465B2, “Oxazole tyrosine kinase inhibitors” (Sareum Limited, priority 2007, dated 2015).

pIC50: −log10 of the molar value.

Type in all cases: biochemical
In one assay the target is T1, human FLT4 (Homo sapiens, UniProt P35916).
T1 construct: a construct expressing the human FLT4 (789-1207) with an amino terminal GST tag; host or cells: Sf9 insect cells (baculovirus)
Briefly: FLT4 kinase assay (DELFIA enzyme inhibition). To be noted: read-out: FLT4 IC50. A digest of the protocol: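 Read-out is DELFIA: biotinylated MET Tyr1253-derived peptide captured on Neutravidin, phosphotyrosine detected by Eu-antibody time-resolved fluorescence. Enzyme is Sf9-expressed GST-FLT4 (789-1207), reacting 30 min at room temperature before EDTA stop. IC50 derived from plotted % inhibition.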

Another assay deals with T2, human FLT3 (Homo sapiens, UniProt P36888).
T2 construct: a construct expressing the human FLT3 (564-993) with an amino terminal GST tag; host or cells: Sf9 insect cells (baculovirus)
T2 sequence (P36888 564-993): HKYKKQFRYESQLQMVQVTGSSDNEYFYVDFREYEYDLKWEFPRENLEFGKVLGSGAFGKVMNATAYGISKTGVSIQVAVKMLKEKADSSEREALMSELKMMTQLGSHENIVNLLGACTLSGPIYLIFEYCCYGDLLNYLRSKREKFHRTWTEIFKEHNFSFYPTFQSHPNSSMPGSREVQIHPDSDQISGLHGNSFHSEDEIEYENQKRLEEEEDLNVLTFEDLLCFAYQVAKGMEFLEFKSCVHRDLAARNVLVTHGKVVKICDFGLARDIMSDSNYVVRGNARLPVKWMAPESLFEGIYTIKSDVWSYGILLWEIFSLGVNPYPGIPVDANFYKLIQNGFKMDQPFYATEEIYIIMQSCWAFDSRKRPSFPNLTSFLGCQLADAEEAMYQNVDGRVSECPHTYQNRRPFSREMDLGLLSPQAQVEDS
Description: FLT3 kinase assay (DELFIA enzyme inhibition). The procedure: A GST-kinase fusion protein of 70 KDa was produced using sf9 baculovirus expression system, with a construct expressing the human FLT3 (564-993) with an amino terminal GST tag. The protein was purified by one-step affinity chromatography using glutathione-agarose.
FLT3 enzyme activity is determined using a Dissociation Enhanced Lanthanide Fluorescent Immunoassay (DELFIA) with a peptide substrate derived from the Gastrin Precursor (Tyr 87) peptide […] with a core sequence: EAYGW.
The amount of phosphorylated peptide produced is detected by means of a phospho-Tyrosine specific Europium-labelled antibody using Time-Resolved Fluorescence at Excitation 360-35 nm and Emission 620-35 nm.
Assay reactions are set up in a 25 uL final volume on a 96 well plate. […] The reaction is allowed to proceed for 30 minutes at room temperature before stopping with 100 μL Stop solution comprising of 100 mM EDTA, 1×BSA blocker in TBS (Perbio) and 0.05% Surfact-Amps20 (Perbio).
The stopped reaction is transferred to a black 96-well Neutravidin-coated plate (Perbio) and incubated for 30 minutes to capture the biotinylated peptide substrate. After washing wells 3 times with 200 uL TBS/T buffer, Anti-Phospho-Tyr-100 antibody labelled with Eu—N1 (Perkin Elmer AD0159) is added to all wells for 60 minutes at room temperature. After a repeat washing step, DELFIA Enhancement solution (Perkin Elmer) is added to all wells for 5 minutes and the fluorescence measured on a plate reader Analyst HT (Molecular Devices).
The % inhibition of the activity is calculated and plotted in order to determine the concentration of test compound required to inhibit 50% of the enzyme activity (IC50).

For another assay, the target named is T3, human Aurora A (Homo sapiens, UniProt O14965).
T3 construct: Histidine tag (N); host or cells: Sf9 insect cells (baculovirus)
T3 sequence (O14965 1-403): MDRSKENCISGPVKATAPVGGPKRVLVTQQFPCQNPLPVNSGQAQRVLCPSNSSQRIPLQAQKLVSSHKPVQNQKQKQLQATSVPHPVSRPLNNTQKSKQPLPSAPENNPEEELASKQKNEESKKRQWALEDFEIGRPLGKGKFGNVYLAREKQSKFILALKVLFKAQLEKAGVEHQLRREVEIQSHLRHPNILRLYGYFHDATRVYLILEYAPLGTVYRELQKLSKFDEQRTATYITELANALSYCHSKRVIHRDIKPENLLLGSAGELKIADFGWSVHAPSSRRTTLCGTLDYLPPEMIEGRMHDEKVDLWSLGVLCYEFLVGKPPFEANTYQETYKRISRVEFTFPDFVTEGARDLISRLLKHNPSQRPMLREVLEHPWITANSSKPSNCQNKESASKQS
Description: Aurora A kinase assay (DELFIA enzyme inhibition). To be noted: read-out: Aurora A IC50. A digest of the protocol: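 DELFIA read-out (time-resolved Eu fluorescence, 620 nm emission) after Neutravidin capture of biotinylated peptide substrate and antibody detection. Reaction: Ni-agarose-purified Aurora A, 30 min at room temperature, stopped with 100 mM EDTA.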

As usually defined, the pIC50 is −log10 of the IC50, conventionally taken in molar units.

T1 sequence (P35916 789-1207): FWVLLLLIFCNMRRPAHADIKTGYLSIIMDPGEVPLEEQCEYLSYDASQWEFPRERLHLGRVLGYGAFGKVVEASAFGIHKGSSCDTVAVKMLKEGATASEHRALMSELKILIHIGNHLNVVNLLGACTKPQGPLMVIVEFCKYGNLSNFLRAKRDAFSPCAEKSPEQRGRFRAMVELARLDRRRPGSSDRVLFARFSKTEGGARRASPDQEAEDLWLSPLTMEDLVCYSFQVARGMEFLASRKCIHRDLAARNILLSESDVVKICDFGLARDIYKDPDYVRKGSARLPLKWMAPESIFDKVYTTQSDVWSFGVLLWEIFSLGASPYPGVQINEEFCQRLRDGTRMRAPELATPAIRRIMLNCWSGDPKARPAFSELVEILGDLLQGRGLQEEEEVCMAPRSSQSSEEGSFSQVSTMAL

With `NC(=O)c1nc(-c2c(F)cccc2F)oc1-c1ccc(N2CCOCC2)nc1` [Example F-19, 2-(2,6-difluorophenyl)-5-(6-morpholinopyridin-3-yl)oxazole-4-carboxamide], the negative logarithm of the IC50 (pIC50) on human FLT4 and on human FLT3 was greater than 4.00 throughout. For the molecule `COc1ccc(-c2oc(-c3ccc(C#N)cc3)nc2C(N)=O)cc1` [Example M-9, 2-(4-cyanophenyl)-5-(4-methoxyphenyl)oxazole-4-carboxamide], the negative-log IC50 (pIC50) at human FLT4 and against human FLT3 was greater than 4.00 each time.

For the molecule `CN(C)c1ccc(-c2oc(-c3c(F)cccc3F)nc2C(N)=O)cn1` [Example F-7, 2-(2,6-difluorophenyl)-5-(6-(dimethylamino)pyridin-3-yl)oxazole-4-carboxamide], the pIC50 at human FLT4 was greater than 5.00; against human FLT3, greater than 4.00. Turning to `COc1ccc(-c2oc(-c3ccc(S(C)(=O)=O)cc3)nc2C(N)=O)cc1` [Example M-11, 5-(4-methoxyphenyl)-2-(4-(methylsulfonyl)phenyl)oxazole-4-carboxamide], the negative logarithm of the IC50 (pIC50) against human FLT3 was greater than 4.00. For the molecule `NC(=O)c1nc(-c2c(F)cccc2F)oc1-c1ccccn1` [Example F-2, 2-(2,6-difluorophenyl)-5-(pyridin-2-yl)oxazole-4-carboxamide], the pIC50 at human FLT4 and at human FLT3 was greater than 4.00 in each case. For the molecule `NC(=O)c1nc(-c2c(F)cccc2F)oc1Nc1ccc(N2CCOCC2)cc1` [Example Q-1, 2-(2,6-difluorophenyl)-5-(4-morpholinophenylamino)oxazole-4-carboxamide], the pIC50 at human Aurora A and against human FLT3 was greater than 5.00 throughout. As to `COc1ccc(-c2oc(Nc3cccc(OC)c3)nc2C(N)=O)cc1` [Example R-3, 5-(4-methoxyphenyl)-2-(3-methoxyphenylamino)oxazole-4-carboxamide], the negative logarithm of the IC50 (pIC50) at human Aurora A is greater than 4.00; at human FLT3, greater than 5.00. In the case of `COc1ccc(Nc2oc(-c3c(F)cccc3F)nc2C(N)=O)cc1` [Example P-1, 2-(2,6-difluorophenyl)-5-(4-methoxyphenylamino)oxazole-4-carboxamide], the negative-log IC50 (pIC50) at human FLT4 and against human FLT3 was greater than 5.00 each time. Take `NC(=O)c1nc(-c2c(F)cccc2F)oc1Nc1ccc(C(=O)NCC2CCNCC2)cc1` [Example Q-50, 5-(4-((piperidin-4-ylmethyl)carbamoyl)phenylamino)-2-(2,6-difluorophenyl)oxazole-4-carboxamide]: the pIC50 at human Aurora A and on human FLT4 was greater than 5.00 throughout.

Take `CC(=O)Nc1ccc(-c2oc(-c3c(F)cccc3F)nc2C(N)=O)cc1` [Example F-23, 5-(4-acetamidophenyl)-2-(2,6-difluorophenyl)oxazole-4-carboxamide]: the pIC50 on human Aurora A is greater than 4.00; at human FLT4, greater than 5.00.

For `CCN(CCO)CCOc1ccc(-c2oc(-c3c(F)cccc3F)nc2C(N)=O)cc1` [Example S-19, 2-(2,6-difluorophenyl)-5-(4-(2-(ethyl(2-hydroxyethyl)amino)ethoxy)phenyl)oxazole-4-carboxamide], the pIC50 at human Aurora A and on human FLT4 was greater than 5.00 each time. In the case of `NC(=O)c1nc(-c2c(F)cccc2F)oc1Nc1ccc(C(=O)N[C@@H]2CCCNC2)cc1` [Example Q-53, (R)-2-(2,6-difluorophenyl)-5-(4-(piperidin-3-ylcarbamoyl)phenylamino)oxazole-4-carboxamide], the pIC50 on human Aurora A and on human FLT4 was greater than 5.00 in each case. Turning to `COc1ccc(-c2nc(-c3cccc(OC)c3)[nH]c2C(N)=O)cc1` [Example A-4, 2-(3-methoxyphenyl)-4-(4-methoxyphenyl)-1H-imidazole-5-carboxamide], the negative-log IC50 (pIC50) on human Aurora A and on human FLT4 was greater than 4.00 in each case.

As for `COc1ccc(-c2oc(Nc3cccc(C)c3)nc2C(N)=O)cc1` [Example R-6, 2-(m-toluidino)-5-(4-methoxyphenyl)oxazole-4-carboxamide], the pIC50 on human Aurora A and on human FLT4 was greater than 5.00 each time. Take `COc1ccc(-c2nc(-c3ccccc3C)[nH]c2C(N)=O)cc1` [Example A-6, 4-(4-methoxyphenyl)-2-o-tolyl-1H-imidazole-5-carboxamideHH]: the pIC50 at human Aurora A and at human FLT4 was greater than 4.00 throughout. On to `COc1ccc(-c2nc(-c3c(Cl)cccc3Cl)[nH]c2C(N)=O)cc1` [Example A-10, 2-(2,6-dichlorophenyl)-4-(4-methoxyphenyl)-1H-imidazole-5-carboxamide], for which the pIC50 on human Aurora A and on human FLT4 was greater than 4.00 each time.

For `COc1ccc(-c2oc(-c3cccc(C)c3)nc2C(N)=O)cc1` [Example N-10, 5-(4-methoxyphenyl)-2-m-tolyloxazole-4-carboxamide], the pIC50 at human Aurora A and at human FLT4 was greater than 4.00 throughout. On to `COc1ccc(-c2oc(-c3c(F)cccc3F)nc2C(N)=O)cc1` [Example E-2, 2-(2,6-difluorophenyl)-5-(4-methoxyphenyl)oxazole-4-carboxamide], for which the pIC50 at human Aurora A is greater than 4.00; at human FLT4, greater than 5.00.

Take `COc1ccc(-c2nc(-c3ccc(OC)cc3)c(C(N)=O)[nH]2)cc1` [Example A-5, 2,4-bis(4-methoxyphenyl)-1H-imidazole-5-carboxamide]: the pIC50 on human Aurora A and at human FLT4 was greater than 4.00 each time.

`COc1ccc(-c2oc(-c3cccc(NC(C)=O)c3)nc2C(N)=O)cc1` [Example N-3, 2-(3-acetamidophenyl)-5-(4-methoxyphenyl)oxazole-4-carboxamide]: the negative logarithm of the IC50 (pIC50) on human FLT4 was greater than 5.00; on human FLT3 it was greater than 4.00.

Regarding `Cc1ccccc1Nc1nc(C(N)=O)c(-c2ccc(N3CCNCC3)cc2)o1` [Example R-10, 2-(o-toluidino)-5-(4-(piperazin-1-yl)phenyl)oxazole-4-carboxamide], the pIC50 at human Aurora A and at human FLT4 was greater than 5.00 throughout. With `COc1ccc(-c2nc(-c3c(F)cc(Br)cc3F)[nH]c2C(N)=O)cc1` [Example A-14, 2-(4-bromo-2,6-difluorophenyl)-4-(4-methoxyphenyl)-1H-imidazole-5-carboxamide], the negative-log IC50 (pIC50) on human Aurora A and at human FLT4 was greater than 4.00 each time.

For the molecule `COc1ccc(-c2nc(-c3cccnc3)[nH]c2C(N)=O)cc1` [Example A-12, 4-(4-methoxyphenyl)-2-(pyridin-3-yl)-1H-imidazole-5-carboxamide], the negative logarithm of the IC50 (pIC50) on human Aurora A and at human FLT4 was greater than 4.00 in each case.

Take `COc1ccc(-c2oc(-c3ccccc3)nc2C(N)=O)cc1` [Example M-2, 5-(4-methoxyphenyl)-2-phenyloxazole-4-carboxamide]: the negative logarithm of the IC50 (pIC50) is greater than 5.00 at human FLT4 and greater than 4.00 at human FLT3. Turning to `NCC1CCN(c2ccc(Nc3oc(-c4c(F)cccc4F)nc3C(N)=O)cc2)CC1` [Example Q-18, 5-(4-(4-(aminomethyl)piperidin-1-yl)phenylamino)-2-(2,6-difluorophenyl)oxazole-4-carboxamide], the pIC50 on human Aurora A and at human FLT4 was greater than 5.00 throughout. As for `CNCCNC(=O)c1ccc(Nc2oc(-c3c(F)cccc3F)nc2C(N)=O)cc1` [Example U-3, 5-(4-((2-(methylamino)ethyl)carbamoyl)phenylamino)-2-(2,6-difluorophenyl) oxazole-4-carboxamide], the negative-log IC50 (pIC50) on human Aurora A and on human FLT4 was greater than 5.00 each time.
